Assay results: patent US11866394B2, “Prodrugs of hydroxamate-based GCPII inhibitors” (The Johns Hopkins University, priority 2016, dated 2024)
“Also recorded” adds a separate entry of the source. Read-outs that look alike come from different tables or passages of the source.

Columns and labels:
[1] = cited from earlier work; for oral bioavailability: background statement
[2] = system: rat chronic constriction injury (CCI) model of neuropathic pain; conditions: cited from earlier work
rhGCPII = rhGCPII (Homo sapiens, UniProt Q04609); assay: GCPII inhibition, radioenzymatic assay with 3H-NAAG; assay type: biochemical; conditions: for IC50: rhGCPII, 3H-NAAG, pH 8.0, read-out: IC50, inhibition potency against GCPII
Chain of rhGCPII (Q04609 whole entry): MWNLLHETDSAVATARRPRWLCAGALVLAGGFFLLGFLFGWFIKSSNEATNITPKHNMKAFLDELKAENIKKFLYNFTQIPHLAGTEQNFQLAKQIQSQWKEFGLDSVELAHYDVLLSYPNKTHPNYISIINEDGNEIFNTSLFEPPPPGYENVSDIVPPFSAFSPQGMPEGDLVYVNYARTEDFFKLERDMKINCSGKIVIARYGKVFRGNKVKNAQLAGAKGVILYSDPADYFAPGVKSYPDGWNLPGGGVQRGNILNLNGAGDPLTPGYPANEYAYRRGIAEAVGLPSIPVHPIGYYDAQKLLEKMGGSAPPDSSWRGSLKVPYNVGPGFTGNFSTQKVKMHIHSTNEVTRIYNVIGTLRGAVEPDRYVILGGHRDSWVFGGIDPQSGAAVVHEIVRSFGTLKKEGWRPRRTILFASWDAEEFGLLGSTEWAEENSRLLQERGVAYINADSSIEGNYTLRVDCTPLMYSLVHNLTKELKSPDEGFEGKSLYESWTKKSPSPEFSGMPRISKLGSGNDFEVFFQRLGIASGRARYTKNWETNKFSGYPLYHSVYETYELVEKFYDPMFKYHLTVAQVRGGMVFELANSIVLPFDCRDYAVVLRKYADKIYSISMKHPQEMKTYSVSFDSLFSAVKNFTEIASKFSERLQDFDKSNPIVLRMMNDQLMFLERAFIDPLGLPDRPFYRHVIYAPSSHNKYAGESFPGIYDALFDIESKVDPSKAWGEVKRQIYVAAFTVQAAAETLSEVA
Procedure: Inhibition constants of prodrugs were determined using the radioenzymatic assay with 3HNAAG (radiolabeled at the terminal glutamate) as has been previously described (Novakova, et al., J. Med. Chem, 2016). Briefly, rhGCPII (30 ng/mL) was preincubated in the presence of inhibitors at varying concentrations, in 20 mM Tris, 150 mM NaCl, pH 8.0, for 15 min at 37° C. in the total volume of 80 μL. The reaction was initiated by the addition of 40 μL of the mixture of 0.31 μM NAAG (Sigma) and 15 nM 3H-NAAG (50 Ci/mmol in Tris buffer, PerkinElmer) to the total reaction volume of 120 μL. Following 20 min incubation, the reaction was terminated by addition of 120 μL of potassium phosphate (200 Mm), EDTA (50 Mm) and β-mercaptoethanol (2Mm), pH 7.4. The released glutamate was separated by ion-exchange chromatography and quantified by liquid scintillation counting. GraphPad Prism software (GraphPad Software, San Diego, CA, USA), was used for data fitting and IC50 values were calculated from the inhibition curves where applicable.

[3] = In vitro plasma metabolite identification studies; assay type: in vitro ADME; conditions: 10 μM, 37° C., 60 min incubation
Procedure: Plasma stability studies were conducted in mouse plasma as previously described. (Majer, et al., 2016) Compound 1 and prodrugs (12, 23 and 30) (10 μM) were spiked in plasma and incubated in an orbital shaker at 37° C. At zero and 60 min post incubation, 100 μL aliquots of the mixture in triplicate were removed and the reaction quenched by addition of two times the volume of ice cold acetonitrile spiked with the internal standard (losartan 5 μM). The samples were vortexed for 30 s and centrifuged at 12000 g for 10 min. Supernatant (50 μL) was diluted with 50 μL water and transferred to a 250 μL polypropylene vial sealed with a Teflon cap. Prodrug disappearance and metabolite identification were analyzed over time using an Agilent 1260 HPLC coupled to a ESITOF Agilent 6530 with Agilent Jet Stream Technology (Agilent Technologies, Santa Clara, CA). Samples were separated on a Waters 1.7 μm, C18, 100×2.1 column at a flow rate 0.3 mL/min. […] The mass spectrometry instrument was operated in a negative or positive (for JV-2946) ion mode with a voltage of +3.00 kV applied to the capillary. The temperature, the flow rate of the nitrogen drying gas, the pressure of the nitrogen nebulizing gas, the temperature, and the flow rate of the sheath gas were set at 325° C., 10 L/min, 40 psi, 390° C., and 11/min, respectively.

[4] = Subcutaneous plasma and sciatic nerve pharmacokinetic studies in mice; assay type: in vivo; conditions: 10 mg/kg equivalent s.q., 10-120 min post dose
Procedure: Bioanalysis of parent and intact prodrug in plasma and tissues: Prior to extraction, frozen samples were thawed on ice. For plasma, 50 μL of the sample was transferred into siliconized microcentrifuge tubes. For sciatic nerves, the samples were weighed in a 1.7 mL tubes and homogenized in 5× the volume of methanol. The calibration curves were prepared using naïve plasma and sciatic nerves in a concentration range of 50-10000 pmol/g or pmol/mL. Sample preparation involved a single liquid extraction by addition of 300 μL of methanol with internal standard (losartan 200 nM in methanol), followed by vortexing for 30 s and then centrifugation at 10,000×g for 10 min. Supernatant (about 250 μL) was transferred and evaporated to dryness at 40° C. under a gentle stream of nitrogen. The residue was reconstituted with 50 μL of 30% acetonitrile and analysed by LC/MS/MS.
Chromatographic analysis was performed using an Accela™ ultra high-performance system consisting of an analytical pump, and an autosampler coupled with TSQ Vantage mass spectrometer (Thermo Fisher Scientific Inc., Waltham, MA). […] The mobile phase used was composed of 0.1% formic acid in acetonitrile and 0.1% formic acid in H2O with gradient elution, starting with 10% (organic) linearly increasing to 99% up to 2.5 min, maintaining at 99% (2.5-3.5 min) and reequlibrating to 10% by 4.5 min. The total run time for each analyte was 4.5 min. The mass transitions (M−H)− used for Compound 50 were 280.077>175.168, 203.156; and for losartan were 420.895>127.040, 179.108.

[5] = system: rat chronic constriction injury (CCI) model of neuropathic pain; assay: Chronic constrictive injury (CCI) model of neuropathic pain, thermal hyperalgesia; assay type: in vivo
Excerpt: All experimental protocols were approved by the Institutional Animal Care and Use Committee at Johns Hopkins University (Baltimore, MD) and adhered to all of the applicable institutional and governmental guidelines for the humane treatment of laboratory animals. Male Sprague-Dawley rats (200-250 g; n=10-15 per group) were subjected to peripheral neuropathy injury by constriction of the sciatic nerve performed according to methods described previously. (Novakova, et al., 2016; Bennett, et al., 1988; Attal, et al., 1990) In brief, the common sciatic nerve was exposed and 4 ligatures (4.0 chromic gut) tied loosely around it with 1 mm spacing. Wound clips were used to close wounds and animals were returned to home cages for recovery. Hyperalgesia testing was initiated 10 days post-surgery. Pain sensitivity was assessed by determining withdrawal latencies in response to a constant thermal stimulus directed to the plantar surface of the hind paw using a Basile Plantar apparatus (Ugo Basile, Vaarese, Italy) according to the method described by Hargreaves et al. (Hargreaves, et al., 1988) Apparatus was calibrated so that normal rats respond to the stimulus within 15 sec of application. Withdrawal latency (i.e., the time taken for the rat to withdraw its paw from the heat source) was measured to the nearest 0.1 sec. The “difference in score” was calculated by subtracting the average latency of the paw on the non-ligated versus ligated side. Each animal was tested during two experimental sessions per week, with three days allowed to elapse between test sessions. Test agents, prodrug 12 (3 mg/kg equivalent of 1), or gabapentin (50 mg/kg and 100 mg/kg po) as a positive control were dosed daily throughout the study via oral gavage and one hour before testing on experimental days. Statistical analysis with students t-test was used to determine differences between control and treatment group.

[6] = In vitro metabolic stability in mouse plasma; assay type: in vitro ADME; conditions: 37° C.
Procedure: (§1) For metabolic stability, plasma (mouse, and human) and liver microsomes (mouse and human) were used. For stability, prodrugs (10 μM) were spiked in each matrix and incubated in an orbital shaker at 37° C. At predetermined times (0, 30 and 60 min), 100 μL aliquots of the mixture in triplicate were removed and the reaction quenched by addition of three times the volume of ice cold acetonitrile spiked with the internal standard (losartan 5 μM). The samples were vortexed for 30 s and centrifuged 12000 g for 10 min. 50 μL supernatant diluted with 50 μL water was transferred to a 250 μL polypropylene vial sealed with a Teflon cap. Prodrug disappearance was monitored over time using a liquid chromatography and tandem mass spectrometry (LC/MS/MS) method as described below.
(§2) For LC/MS/MS, prodrugs were separated with Thermo Scientific Accela UPLC system coupled to Accela open autosampler on an Agilent C18 (100×2.1 mm id) UPLC column. The autosampler was temperature controlled and operating at 10° C. […] The column effluent was monitored using TSQ Vantage triple-quadrupole mass spectrometric detector, equipped with an electrospray probe set in the positive ionization mode. […]
(§3) For quantification of compound remaining, disappearance of prodrugs was measured from ratio of peak areas of analyte to IS. Percentage remaining was calculated in the following manner: […]

[7] = In vitro metabolic stability in human plasma; assay type: in vitro ADME; conditions: 37° C.
Procedure: as §1, §2, §3

[8] = Stability testing under GCPII enzyme assay conditions; assay type: physicochemical; conditions: 30 m in aqueous buffer; pH 8.0
Procedure: Compound 1 and its six prodrugs 7, 12, 17, 23, 25, and 30 were tested for their inhibition potency against GCPII. […] Considering structural data on the compound 1/GCPII complex reported previously (Novakova, et al., J. Med. Chem, 2016) the lack of inhibitory potency of the prodrugs is likely due to the inability of the modified hydroxamate function to chelate active-site zinc ions.

O=C(CCC(Cc1ccc(C(=O)O)cc1)C(=O)O)NO (stereo not drawn) [Compound 1, 4-Carboxy-α-[3-(hydroxyamino)-3-oxopropyl]-benzenepropanoic acid]
distribution to sciatic nerves ([1]; Novakova, et al., 2016): good distribution to sciatic nerves
oral bioavailability [1]: poor oral bioavailability
analgesic effects in the CCI model ([2]; 10 mg/kg/day oral dosing, previously shown): analgesic effects
first day with significantly reduced thermal hyperalgesia ([2]; oral 10 mg/kg/day (Novakova, et al., 2016)): 8 days
IC50 (rhGCPII): 44 nM
stability / prodrug disappearance in mouse plasma [3]: completely stable

O=C(O)CCC(CP(=O)(O)O)C(=O)O (stereo not drawn) [Compound 2-PMPA, 2-phosphonomethyl pentanedioic acid]
oral bioavailability [1]: negligible oral availability

CC(=O)Oc1ccc(CONC(=O)CCC(Cc2ccc(C(=O)O)cc2)C(=O)O)cc1 (stereo not drawn) [Compound 12, 4-(5-(((4-Acetoxybenzyl)oxy)amino)-2-carboxy-5-oxopentyl)benzoic acid]
plasma (systemic) levels of active compound 50 after subcutaneous dosing [4]: high systemic levels
sciatic nerve exposure of active compound 50 after subcutaneous dosing [4]: excellent nerve exposure
response latency to thermal stimulus, sham-operated side ([5]; oral 4.6 mg/kg/day (equivalent of 3 mg/kg/day of 1)): no significant effect on absolute latency; also recorded: did not affect the response latency
antinociceptive effect on thermal hyperalgesia, ligated side ([5]; oral daily, 3 mg/kg dose equivalent of 1 (50), 4.6 mg/kg/day for 12): analgesic efficacy comparable to dose of 10 mg/kg of 1; also recorded: significantly reduced thermal hyperalgesia; also recorded: analgesic efficacy superior to that of oral daily doses of 10 mg/kg of 1; also recorded: efficacious; also recorded: significantly attenuated CCI-induced hyperalgesic state
first day with significantly reduced thermal hyperalgesia ([5]; oral, 3 mg/kg/day equivalent of 1): 4 days
stability / prodrug disappearance in mouse plasma [3]: lost the peak corresponding to 12
metabolic stability in mouse plasma [6]: rapidly metabolized
metabolic stability in human plasma [7]: rapidly metabolized

Cc1oc(=O)oc1CONC(=O)CCC(Cc1ccc(C(=O)O)cc1)C(=O)O (stereo not drawn) [Compound 17, 4-(2-Carboxy-5-(((5-methyl-2-oxo-1,3-dioxol-4-yl)methoxy)amino)-5-oxopentyl)benzoic acid]
fold less potent versus 1 in inhibiting GCPII activity (rhGCPII; compared to compound 1): 12 fold
IC50 (rhGCPII): 540 nM
stability under GCPII enzyme assay conditions [8]: partial hydrolysis to 1

CCOC(=O)c1ccc(CC(CCC(=O)NOCc2ccc(OC(C)=O)cc2)C(=O)O)cc1 (stereo not drawn) [Compound 23, 5-(((4-Acetoxybenzyl)oxy)amino)-2-(4-(ethoxycarbonyl)benzyl)-5-oxopentanoic acid]
stability / prodrug disappearance in mouse plasma [3]: complete loss of 23

CC(=O)Oc1ccc(CONC(=O)CCC(Cc2ccc(C(=O)OCOC(=O)OC(C)C)cc2)C(=O)O)cc1 (stereo not drawn) [Compound 30, 5-(((4-Acetoxybenzyl)oxy)amino)-2-(4-((((isopropoxycarbonyl)oxy)methoxy)carbonyl)benzyl)-5-oxopentanoic acid]
plasma (systemic) levels of active compound 50 after subcutaneous dosing [4]: high systemic levels
sciatic nerve exposure of active compound 50 after subcutaneous dosing [4]: excellent nerve exposure
stability / prodrug disappearance in mouse plasma [3]: completely hydrolyzed

NCC1(CC(=O)O)CCCCC1 [gabapentin, reference compound]
antinociceptive effect on thermal hyperalgesia, ligated side ([5]; oral 50 mg/kg/day): did not significantly attenuate the hyperalgesic state
antinociceptive effect on thermal hyperalgesia, ligated side ([5]; oral 100 mg/kg/day, 100 mg/kg/day): significantly reversed allodynia; also recorded: significantly attenuated CCI-induced hyperalgesic state
